According to patent US7572770B2, “Use of an interleukin 1 receptor antagonist and/or pyrrolidinedithiocarbamate for the treatment or prophylaxis of type 2 diabetes” (University of Zurich, priority 2002, dated 2009):

Test system: IL-1Ra
Experiment: IL-1Ra expression and release in human islets
Type: cell-based
Settings: for IL-1Ra released into the culture medium and IL-1Ra mRNA: 10 to 500 nM leptin
Method: Islet isolation and cell culture. Islets were isolated from pancreases of ten organ donors at the Department of Surgery, University of Geneva Medical Center, as described (32-34). The islet purity was >95%, as judged by dithizone staining (if this degree of purity was not primarily achieved by routine isolation, islets were handpicked). […] For long-term in vitro studies, the islets were cultured on extracellular matrix-coated plates derived from bovine corneal endothelial cells (Novamed Ltd., Jerusalem, Israel), allowing the cells to attach to the dishes and spread, preserving their functional integrity (7;35). Islets were cultured in CMRL 1066 medium containing 100 U/ml penicillin, 100 μg/ml streptomycin and 10% fetal calf serum (Invitrogen Corporation, Paisley, U.K.), hereafter referred to as culture medium. Two days after plating, when most islets were attached and began to flatten, the medium was changed to culture medium containing 5.5, 11.1 or 33.3 mM glucose. In some experiments, islets were additionally cultured with 5, 10 or 500 nM rh leptin (PeproTech, London, UK), 500 ng/ml rh IL-1Ra (R&D Systems Inc., Minneapolis, Minn.) or 50 nM small interfering RNA (siRNA) as described below.
RNA interference. RNAs of 21 nucleotides, designed to target human IL-1Ra (5′AUCUGCAGAGGCCUCCGCAtt3′/5′UGCGGAGGCCUCUGCAGAUtt3′) and scrambled siRNA were synthesized by Ambion (Austin, Tex.). siRNAs were transfected using SiPortAmine™ according to the manufacturer's instructions (Ambion).
Detection of IL-1Ra and IL-1β expressing cells. Pancreases from routine necropsies were immersion-fixed in formalin, followed by paraffin embedding. In parallel, isolated human were cultured in a suspension for 48 hours and exposed to 10 nM leptin or 33.3 mM glucose, islets were fixed in Bouin solution for 15 min, resuspended in 40 μl of 2% melted agarose in PBS (40° C.), followed by rapid centrifugation and paraffin embedding. Sections were deparaffinized, rehydrated and then incubated in methanol for 4 min. Human islets cultured on extracellular matrix for 4 days were washed in PBS, fixed in 4% paraformaldehyde (30 min, room temperature) followed by permeabilization with 0.5% triton X-100 (4 min, room temperature). Pancreas and islet sections and cultured cells were double-labeled for IL-1Ra or IL-1β and insulin, CD68, glucagon or somatostatin by 1 h of exposure to 10% bovine serum albumin followed by incubation (1 h, 37° C.) with biotinylated goat anti-IL-1Ra or mouse anti-IL-1β antibodies (R&D Systems Inc.). Detection was performed using cy3-(Jackson, ImMunoResearch Laboratories, West Grove, Pa.) or cy2-(Transduction Lab., Lexington, Ky.) conjugated streptavidin. […]

Substance: leptin: rh leptin (PeproTech); protein encoded by the ob gene
- IL-1Ra expression in β-cells (double immunostaining) (10 nM leptin, 48 hours): decreased IL-1Ra expression in most β-cells
- IL-1Ra released into the culture medium and IL-1Ra mRNA (15 hours): increased
- IL-1Ra released into the culture medium and IL-1Ra mRNA (48 hours): marked decrease
- IL-1Ra protein (Western blot) (leptin, 15-hour exposure): decreased IL-1Ra already after a 15-hour exposure
